Consider 1 molecule from article PMC3114464 (Biochemistry, 2011).

Holding throughout (format): binding
The target of assay [1] is IsdB-N2 (C-terminal NEAT domain of IsdB) (Staphylococcus aureus, UniProt Q7A656). Briefly: […] Å crystal structure.
Another assay addresses IsdB-N2 M362L (Staphylococcus aureus, UniProt Q7A656, M362L). Nature of the assay: Trp fluorescence quenching.
The target in assay [2] is IsdA-N1 (IsdA NEAT domain) (Staphylococcus aureus, UniProt Q7A655).

With `C=CC1=C(C)C2=Cc3c(C=C)c(C)c4[n]3[Fe][n]3c(c(C)c(CCC(=O)O)c3=CC3=NC(=C4)C(C)=C3CCC(=O)O)=CC1=N2` [heme], the Kd is below 380 nM in assay [1] and below 490 nM at IsdB-N2 M362L. Besides, the “stopped-flow Soret spectroscopy of heme transfer from holo-IsdB-N2 to apo-IsdA-N” value in assay [2] is 82 ± 6 s^–1.
